Entries after “also recorded” stand apart in the source; their conditions may differ. Structures can show the parent of a compound that is named as a salt. Where two headings read alike, the source gives them in different places. Starred links: 1 amine or outer side, 2 acyl side, 3 side chain; linkers in the order of their positions; H or OH if unused. Positions of bridges follow the written chain, without caps; N, C: chain ends. Non-standard residues stand in square brackets, D forms with d. Residues, ends and D or L forms follow the SMILES beside them. Chains are numbered I, II in the order given. Actinocin(9to1) = Cc1c2oc3c(C)ccc(C(=O)[*:1])c3nc-2c(C(=O)[*:2])c(N)c1=O; NMeV = CN[C@H](C(=O)O)C(C)C; Nle = CCCC[C@H](N)C(=O)O; Sar = CNCC(=O)O
Key:
selectin = details: cited from earlier work; for block selectin binding to sLe^x: in vitro
ICAM-1 [1] = assay: X-ray induction of ICAM-1 expression with enzyme inhibitors; format: cell-based, human; details: inhibitor added prior to irradiation
Excerpt: (§1) The initial step in discerning the potential role of various signal transduction pathways is to add enzyme inhibitors prior to x-radiation. Exocytosis of Weibel-Palade bodies is an active process requiring the translocation of cytoplasmic granules. Previous studies have shown that intracellular signal transduction required for Weibel Palade body translocation involves influx of calcium and protein kinase C activation (calcium, PKC). To determine whether these signaling pathways participate in radiation-mediated Weibel-Palade body exocytosis, the inventors added the intracellular calcium chelator BAPTA and the protein kinase C inhibitor, calphostin, to HUVEC cells prior to irradiation. Cells were then treated with 10 Gy and immunofluorescence was used to localize P-selectin. […] Conversely, the tyrosin kinase inhibitor, herbimycin A, had no effect on Weibel-Palade exocytosis. To determine whether calcium chelation and protein kinase inhibition prevent all molecular responses to ionizing radiation, the inventors' added BAPTA and calphostin prior to radiation-induction of ICAM-1 expression. BAPTA and calphostin had no effect on x-ray induction of ICAM-1. However, herbimycin A and the NFkB inhibitor ALLN attenuated x-ray induction of ICAM-1.

HL60 cells = assay: HL60 leukocyte adhesion to irradiated HUVECs; format: cell-based, human; details: 1 mM each; added 4 h after 10 Gy and 30 min prior to HL60 cells
Protocol: Human leukemia cell line HL60 has been used to quantify leukocyte adhesion to endothelial cells (Jones et al., 1995). HL60 cells were added to human umbilical vein in endothelial cells (HUVECs) after exposure to 10 Gy or cells treated with otherwise identical conditions without irradiation. Cultures were washed and cells were counted using a hemocytometer. […] Each agent blocked the adherence of HL60 cells to irradiated HUVECs.

[2] = rats, orally; Akao et al. (1994); cited from earlier work
[3] = Narasinga Rao et al. (1994); cited from earlier work
E-selectin [4] = details: Hallahan et al., 1995, 1996; cited from earlier work
ICAM-1 [5] = details: Hallahan et al., 1995, 1996; cited from earlier work
E-selectin [6] = biological target: T1, E-selectin (Homo sapiens, UniProt P16581); details: Nelson et al. (1993); cited from earlier work
T1 sequence (P16581 22-610): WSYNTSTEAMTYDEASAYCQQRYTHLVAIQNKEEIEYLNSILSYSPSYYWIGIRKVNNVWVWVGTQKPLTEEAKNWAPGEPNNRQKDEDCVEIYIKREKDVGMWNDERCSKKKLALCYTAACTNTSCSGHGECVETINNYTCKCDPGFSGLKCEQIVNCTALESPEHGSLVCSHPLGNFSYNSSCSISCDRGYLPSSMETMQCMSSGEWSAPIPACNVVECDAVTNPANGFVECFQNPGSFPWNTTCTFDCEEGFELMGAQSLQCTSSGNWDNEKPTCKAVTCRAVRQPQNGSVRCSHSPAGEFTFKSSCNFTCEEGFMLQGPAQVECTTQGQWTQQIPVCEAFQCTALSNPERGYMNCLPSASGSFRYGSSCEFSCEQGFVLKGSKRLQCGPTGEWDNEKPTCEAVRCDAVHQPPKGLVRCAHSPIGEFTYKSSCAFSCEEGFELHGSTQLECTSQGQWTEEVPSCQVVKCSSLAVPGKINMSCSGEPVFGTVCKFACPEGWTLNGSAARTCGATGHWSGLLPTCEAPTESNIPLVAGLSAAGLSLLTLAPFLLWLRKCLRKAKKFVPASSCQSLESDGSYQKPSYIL

vWF = details: disruption of microtubules; cited from earlier work
P-selectin [7] = assay: P-selectin translocation in irradiated HUVEC with microtubule or actin agents, confocal immunofluorescence; format: cell-based, human; details: for x-ray induced translocation of P-selectin: HUVEC pretreated 45 min, staining 60 minutes after x-irradiation (2 Gy); for 8-fold increase in P-selectin immunofluorescence on the cell surface: x-irradiated (2 Gy) HUVEC, confocal microscopy quantified by NIH Image, FIG. 2
P-selectin [8] = assay: P-selectin translocation (Weibel-Palade body exocytosis) in irradiated HUVEC with enzyme inhibitors, immunofluorescence; format: cell-based, human; details: inhibitor added prior to irradiation, 10 Gy
Excerpt: as §1

## CC1(C)[C@@H](O)CC[C@]2(C)[C@H]3C(=O)C=C4[C@@H]5C[C@@](C)(C(=O)O)CC[C@]5(C)CC[C@@]4(C)[C@]3(C)CC[C@@H]12 [18-β-glycyrrhetinic acid]
selectin; Narasinga-Rao et al. (1994), read-out: IC50 blocking selectin activity
  IC50: > 2000 µM

## CCCC[C@@H](C=O)NC(=O)[C@H](CC(C)C)NC(=O)[C@H](CC(C)C)NC(C)=O [ALLN] (Ac-Leu-Leu-[Nle]-aldehyde)
ICAM-1 [1]
  x-ray induction of ICAM-1: attenuated

## CC1(C)[C@@H](O[C@H]2O[C@H](C(=O)O)[C@@H](O)[C@H](O)[C@H]2O[C@@H]2O[C@H](C(=O)O)[C@@H](O)[C@H](O)[C@H]2O)CC[C@]2(C)[C@H]3C(=O)C=C4[C@@H]5C[C@@](C)(C(=O)O)CC[C@]5(C)CC[C@@]4(C)[C@]3(C)CC[C@@H]12 [Glycyrrhizin]
HL60 cells
  adherence of HL60 cells to irradiated HUVECs: blocked
selectin; Narasinga Rao et al. (1994)
  block selectin binding to sLe^x: block
selectin; Narasinga Rao et al. (1994), listed as glycyrrhizin
  block selectin binding to sLe^x: blocked
[2]
  absorption from the gut: poorly absorbed

## CC1OC(OC2CCC3(C)C(CCC4(C)C3C(=O)C=C3C5CC(C)(C(=O)O)CCC5(C)CCC34C)C2(C)C)C(O)C(O)C1O [L-fucose derivative]
selectin; sugars substituted for the glucuronic acids of glycyrrhizin, Narasinga Rao et al. (1994)
  selectin inhibition activity in vitro: most active
[3]
  in vivo efficacy (anti-inflammatory activity): most active

## CC(C)C[C@H](NP(=O)(O)O[C@@H]1O[C@@H](C)[C@H](O)[C@@H](O)[C@H]1O)C(=O)N[C@@H](Cc1c[nH]c2ccccc12)C(=O)[O-].CC(C)C[C@H](NP(=O)(O)O[C@@H]1O[C@@H](C)[C@H](O)[C@@H](O)[C@H]1O)C(=O)N[C@@H](Cc1c[nH]c2ccccc12)C(=O)[O-].[Na+].[Na+] [N-(α-Rhamnopyranosyloxy hydroxyphosphonyl)- Leu-Trp]
selectin; Narasinga Rao et al. (1994)
  block selectin binding to sLe^x: effective

## Cc1c2oc3c(C)ccc(C(=O)N[C@@H]4C(=O)N[C@H](C(C)C)C(=O)N5CCC[C@H]5C(=O)N(C)CC(=O)N(C)[C@@H](C(C)C)C(=O)O[C@@H]4C)c3nc-2c(C(=O)N[C@@H]2C(=O)N[C@H](C(C)C)C(=O)N3CCC[C@H]3C(=O)N(C)CC(=O)N(C)[C@@H](C(C)C)C(=O)O[C@@H]2C)c(N)c1=O [actinomycin D] (I: T[dV]P[Sar][NMeV] / II: T[dV]P[Sar][NMeV]; ester I:1-I:C, II:1-II:C; linker I:N-II:N via Actinocin(9to1))
E-selectin [4]
  radiation-mediated increase in E-selectin mRNA expression: blocked
ICAM-1 [5]
  radiation-mediated increase in ICAM-1 mRNA expression: blocked

## COC(=O)CCCCCCCCO[C@@H]1O[C@H](CO)[C@@H](O[C@@H]2O[C@@H](C)[C@@H](O)[C@@H](O)[C@@H]2O)[C@H](O[C@@H]2O[C@H](CO)[C@H](O)[C@H](O[C@]3(C(=O)O)C[C@H](O)[C@@H](NC(C)=O)[C@H]([C@H](O)[C@H](O)CO)O3)[C@H]2O)[C@H]1N [amino substituted sLe^a]
E-selectin [6]
  IC50: 21 ± 3 µM
  more active than the reducing tetrasaccharide sLe^x: 36 fold

## Cc1c(C(=O)O)c(O)cc2c1C(=O)c1c(O)c([C@H]3O[C@H](CO)[C@@H](O)[C@H](O)[C@H]3O)c(O)c(O)c1C2=O [carmine]
selectin; Narasinga Rao et al. (1994)
  block selectin binding to sLe^x: effective

## Cc1c(C(=O)O)c(O)cc2c1C(=O)c1c(O)c([C@@H]3O[C@H](CO)[C@@H](O)[C@H](O)[C@H]3O)c(O)c(O)c1C2=O [carminic acid]
HL60 cells
  adherence of HL60 cells to irradiated HUVECs: blocked
selectin; Narasinga Rao et al. (1994)
  block selectin binding to sLe^x: blocked selectin binding at concentrations comparable to those of glycyrrhizin

## COc1cc2c(c(OC)c1OC)-c1ccc(OC)c(=O)cc1[C@@H](NC(C)=O)CC2 [colchicine]
vWF
  vWF secretion from thrombin-treated endothelial cells: attenuates

## C=C1[C@@H](C)[C@H]2[C@H](Cc3ccccc3)NC(=O)[C@]23OC(=O)/C=C/[C@H](O)CCC[C@@H](C)C/C=C/[C@H]3[C@@H]1O [cytochalasin-B]
P-selectin [7]
  x-ray induced translocation of P-selectin: no inhibition
  8-fold increase in P-selectin immunofluorescence on the cell surface: not

## CC1(C)[C@@H](O[C@H]2O[C@H](C(=O)O)[C@@H](O)[C@H](O)[C@H]2O[C@@H]2O[C@H](C(=O)O)[C@@H](O)[C@H](O)[C@H]2O)CC[C@]2(C)[C@H]3C(=O)C=C4[C@@H]5C[C@@](C)(C(=O)O)CC[C@]5(C)CC[C@@]4(C)[C@]3(C)CC[C@@H]12 [glycyrrhizic acid (NH^+4), glycyrrhizic acid]
selectin; Narasinga Rao et al. (1994)
  block selectin binding to sLe^x: blocked

## CO[C@H]1[C@@H](OC)C[C@H](C)[C@@H](OC)C2=CC(=O)C=C(NC(=O)/C(C)=C/C=C\[C@H](OC)[C@@H](OC(N)=O)/C(C)=C/[C@@H]1C)C2=O [herbimycin A]
P-selectin [8]
  P-selectin translocation to the cell membrane (Weibel-Palade exocytosis): no effect
ICAM-1 [1]
  x-ray induction of ICAM-1: attenuated

## C[C@H]1O[C@H](OC2[C@@H](O)[C@@H](O)C(O)[C@H](O)[C@H]2O)[C@@H](N)C[C@@H]1N=C(N)C(=O)O.Cl (some centres unmarked) [kasugamycin hydrochloride]
selectin; Narasinga Rao et al. (1994)
  block selectin binding to sLe^x: effective

## C[C@H]1O[C@H](O[C@H]2[C@H](O)[C@@H](O)[C@@H](O)[C@H](O)[C@@H]2O)[C@@H](N)C[C@@H]1NC(=N)C(=O)O [kasugamycin]
selectin; Narasinga Rao et al. (1994)
  block selectin binding to sLe^x: effective

## CC(=O)Nc1c(I)c(NC(C)=O)c(I)c(C(=O)O)c1I.CNC[C@H](O)[C@@H](O)[C@H](O)[C@H](O)CO [meglumine diatrizoate]
selectin; Narasinga Rao et al. (1994)
  block selectin binding to sLe^x: effective

## CC(=O)Nc1c(I)c(C(=O)O)c(I)c(N(C)C(C)=O)c1I [metrizoic acid (meglumine salt), metrizoic acid]
selectin; Narasinga Rao et al. (1994)
  block selectin binding to sLe^x: effective

## COC(=O)Nc1nc2cc(C(=O)c3cccs3)ccc2[nH]1 [nocodozol]
P-selectin [7]
  x-ray induced translocation of P-selectin: inhibited
  8-fold increase in P-selectin immunofluorescence on the cell surface: abrogated

## O=C(O)c1cc(O)c2c(c1)C(=O)c1cccc(O[C@@H]3O[C@H](CO)[C@@H](O)[C@H](O)[C@H]3O)c1C2=O [rhein-8-glucoside]
selectin; Narasinga Rao et al. (1994)
  block selectin binding to sLe^x: effective

## O=C(O)[C@H]1O[C@H](O[C@@H]2[C@H](O)[C@@H](O)[C@@H](O[C@@H]3[C@H](O)[C@@H](O)C(O)O[C@@H]3C(=O)O)O[C@@H]2C(=O)O)[C@H](O)[C@@H](O)[C@H]1O (some centres unmarked) [trigalacturonic acid]
selectin; Narasinga Rao et al. (1994)
  block selectin binding to sLe^x: effective

## C[C@@H]1O[C@@H](O[C@H]2[C@H](O[C@H]3CC[C@@]4(C)[C@@H](CC[C@]5(C)[C@@H]4CC=C4[C@@H]6CC(C)(C)CC[C@]6(C(=O)O)CC[C@]45C)[C@]3(C)CO)OC[C@H](O)[C@@H]2O)[C@H](O)[C@H](O)[C@H]1O [α-Hederin]
selectin; selectin binding to sLe^x, Narasinga Rao et al. (1994)
  inhibiting concentrations: 2 to 3 mM

## Neu5Acα2-3Galβ1-4 [Fucα1-3]GlcNAc [sialyl Lewis X]
HL60 cells
  adherence of HL60 cells to irradiated HUVECs: blocked

## [ring-^14C]Chlorhexidine
selectin; Narasinga Rao et al. (1994)
  block selectin binding to sLe^x: effective

## calphostin
P-selectin [8]
  P-selectin translocation to the cell membrane (Weibel-Palade exocytosis): attenuation; also recorded: attenuates
ICAM-1 [1]
  x-ray induction of ICAM-1: no effect

## carmine ammonia
selectin; Narasinga Rao et al. (1994)
  block selectin binding to sLe^x: effective

## escin
selectin; Narasinga Rao et al. (1994)
  block selectin binding to sLe^x: effective

## picrocarmine
selectin; Narasinga Rao et al. (1994)
  block selectin binding to sLe^x: effective

Reference: patent EP0986401B1, “P-SELECTIN TRANSLOCATION TO VASCULAR EPITHELIAL LUMEN BY IONIZING RADIATION” (ARCH DEVELOPMENT CORPORATION, priority 1997, dated 1998)
